In series [1] the test system is hyperlipemic rat. The series is described as follows: Cholesterol-reducing effect: test on the hyperlipemic rat. Particulars: 50 mgm/kg by esophageal tube on two successive days, serum 24 hours after final administration. It is filed as in vivo. The procedure:
(§1) 1. Cholesterol-reducing effect
(a) Test on the hyperlipemic rat: Literatur: P. E. Schurr et al., Atherosclerosis Drug Discovery (1976), published by C. E. Day; Plenum, New York, page 215.
Young male rats with an average body weight of 100 gm were made hypercholesterolemic by feeding them for 4 days on a diet consisting of 10% coconut oil, 1.5% cholesterol, 0.5% cholic acid, 0.2% choline chloride and 15% sucrose. While continuing with the diet, the test compound was administered in a methyl cellulose suspension by esophageal tube on two successive days. The animals were then made to fast overnight and 24 hours after the final administration of the test compound a blood sample was taken in order to obtain serum.
In the serum, the total cholesterol was determined enzymatically (Boehringer Mannheim Test Combination 126 039) and the β-lipoproteinswere determined by nephelometry, after precipitation with Ca^++ and heparin, in the Autoanalyzer. The percentage reduction was calculated by comparison with a control group: […]

The test system of series [2] is normolipemic rat. The series is described as follows: Cholesterol-reducing effect: test on the normolipemic rat. Particulars: 1.1 mg/kg (A) or 20.0 mg/kg (B), by esophageal tube twice with interval of 20 hours, serum after 28 and 44 hours. It counts as in vivo. The procedure: as §1
(b) Test on the normolipemic rat:
Male normolipemic rats with an average body weights of 250 to 300 gm were given the test compound by esophageal tube twice with an interval of 20 hours. At the start of the test, the animals were deprived of food but had free access to drinking water. The serum cholesterol levels were determined enzymatically (Boehringer Mannheim Test Combination 126.039) after 28 and 44 hours. The percentage reduction was calculated in comparison with a control group: […]

Series [3] can be described thus: Acute toxicity. It is filed as in vivo. The settings on record: maximum doses used (50 mg/kg per os).
Series [4] concerns thrombocytes of healthy human test subjects. The series is described as follows: Born test: collagen-induced thrombocyte aggregation, with and without PGI2 (in vitro). It counts as cell-based. The settings on record: n = 4; for inhibition at 100 µM: Homo sapiens; for mm height of curve (Born test): control 129. As for the experimental part: (§2) 2. Antithrombotic Activity: (a) The thrombocytes of healthy human test subjects were incubated for 10 minutes at 37° C. with the test substance (final concentration: 1×10^-4 mol/l). Then, aggregation was initiated with collagen in the Born test in the usual way. Shortly before aggregation was initiated, a small quantity of supernatant liquid containing prostacycline, which was obtained from rings of aorta placed in the TRIS buffer, was added to the test sample. The quantity of supernatant liquid containing prostacycline was selected so that on its own it had little or no inhibiting effect. The sample incubated with the substance reacted with PGI2 to give an inhibition of aggregation which was more than additive.

Series [5] shares this test system. Put plainly: Adenosine-potentiating effect in the Born Test (thrombocyte aggregation). It is filed as cell-based. The settings on record: n = 4; for mm height of curve (Born test): control 114.
Series [6] concerns thrombocyte aggregation. The series is described as follows: Prostacycline-reinforcing effect after oral administration in animals (Born Test on blood sample). It is filed as in vivo, rat. As for the experimental part:
as §2, with “(a)” for “2. Antithrombotic Activity: (a)”
(c) Prostacycline-reinforcing effect after oral administration in animals:
Rats weighing 450 gm were given the compound orally at a dose of 20 mg/kg; then, after one hour, a blood sample was taken and the Born Test was carried out as described above.

Setting [7] is: PRP + compound C (1×10^-4 mol/l) + PGI2, collagen.
Where [8] appears, read: PRP + compound C alone, 1×10^-4 mol/l, collagen.
Setting [9] is: PRP + compound C alone (1 × 10^-4).

Consider `CCCCCCCCCCCCN1CCc2cc(C(=O)[O-])sc2CC1.[Na+]`, for which, in series [1], the “Percentage reduction compared with controls: Cholesterol in the serum” value was -21% and the “Percentage reduction compared with controls: β-lipoproteins in the serum” value is reported as -51%. Further, the “Percentage reduction compared with control: Total cholesterol in the serum” value in series [2] is on record as -20%. The toxic side effects result in series [3] is “no toxic side effects were observed”.
As for `Cl.O=C(O)c1cc2c(s1)CCN(Cc1ccccc1)CC2` [A, 6-Benzyl-5,6,7,8-tetrahydro-4H-thieno[2,3-d]azepine-2-carboxylic acid hydrochloride], the “Percentage reduction compared with control: Total cholesterol in the serum” value in series [2] is reported as -26%. The toxic side effects result in series [3] is on record as “no toxic side effects were observed”.
Consider `Cl.Clc1ccccc1CN1CCc2ccsc2CC1` [C, 6-(2-Chlorobenzyl)-5,6,7,8-tetrahydro-4H-thieno[2,3-d]azepine hydrochloride], for which the figures for the inhibition at 100 µM in series [4] (setting [7]) and in series [4] (setting [8]) were 69% and 20.7%, respectively. Also, the “mm height of curve (Born test)” value in series [4] (setting [7]) came out at 38 mm; in series [4] (setting [8]), 101 mm; in series [5] (PRP + compound C + adenosine) it was 44 mm; in series [5] (setting [9]), 75 mm. In addition, the “% inhibition of thrombocyte aggregation” value in series [5] (PRP + compound C + adenosine) stood at 61%; in series [5] (setting [9]), 33%. Further, the inhibition of aggregation is 4% in series [6] (rats treated with 20 mg/kg per os of compound C, blood sample after one hour, without PGI2, averages from three sets of tests on four animals) and 100% in series [6] (rats treated with compound C, 20 mg/kg per os, blood sample after one hour, + PGI2). Also, the toxic side effects entry in series [3] was “no toxic side effects were observed”.
`Nc1ncnc2c1ncn2[C@@H]1O[C@H](CO)[C@@H](O)[C@H]1O` [adenosine, reference compound]: in series [5] (PRP + adenosine alone), the “% inhibition of thrombocyte aggregation” value is given as 20% and the “mm height of curve (Born test)” value amounted to 91 mm.
As to PGI2 [reference compound], in series [4] (PRP + PGI2 alone, collagen), the “% inhibition of thrombocyte aggregation” value was determined as 30% and the “mm height of curve (Born test)” value was 90 mm. Also, the inhibition of aggregation in series [6] (plasma of control animals + PGI2) came out at 20%.

The values are drawn from US4414225A, “Azepine derivatives and their anti-thrombotic compositions and methods” (Dr. Karl Thomae Gesellschaft mit beschrankter Haftung, priority 1981, dated 1983).
